Data taken from US20060263809A1, “Method for sensitive measure of low level apoptosis in cells” (The Rgents of The University of California, priority 2005, published 2006).
“Also recorded” adds a separate entry of the source. *1 amine or outer side, *2 acyl side, *3 side chain or, on linkers, in order; H or OH if unused. Where a SMILES comes first, the peptide text is derived from it. Bridges are numbered along the chain shown (N, C = ends). Roman numbers before positions name the chains, in order. [ ]: non-standard residue; d: D form. The star is where a group is joined. Actinocin(9to1) = Cc1c2oc3c(C)ccc(C(=O)[*:1])c3nc-2c(C(=O)[*:2])c(N)c1=O; NMeV = CN[C@H](C(=O)O)C(C)C; Cbz = O=C(OCc1ccccc1)*; Sar = CNCC(=O)O; CH2F = FC*

Tests used:
WI-38 fibroblasts = experiment: Cell detachment scoring of Act-D-treated cultures with caspase inhibitors; type: cell-based, human; conditions: for attachment of Act-D treated cells with caspase inhibitor: WI-38 cells
Method: (§1) Subconfluent cultures were treated with the caspase inhibitors zVAD or QVD together with actinomycin D (Act-D; 40 nM), which is known to induce cell death […]. Initially, the cultures were simply scored for cell detachment, a late event in the apoptotic response of adherent cells.

HMECs = experiment: as above; type: cell-based, human; conditions: for detachment of cells in the presence of Act-D and caspase inhibitor: Act-D treated
Method: as §1

MEFs [1] = experiment: as above; type: cell-based, mouse; conditions: Act-D 40 nM, 3 days
Method: MEFs were given Act-D (40 nM in DMSO) or DMSO and either no inhibitor, zVAD (100 μM) or QVD (40 μM). After 3 days, the cells were photographed at 10× magnification.
as §1

MEFs [2] = experiment: Caspase-independent cytochrome c release (CICR) assay, diffuse cytochrome c immunostaining; type: cell-based, mouse; conditions: for Diffuse cyt c (%): Act-D 40 nM, QVD 40 μM
Method: Caspase-independent cytochrome c release (CICR) assay. 3×10^4 cells were plated in each well of a Lab-Tek 4 well chamber slide (Nalge Nunc International, Naperville, Ill.) and treated with Act-D (40 nM), DMSO (0.2%), QVD (40 μM), or QVD plus Act-D for 1, 2, or 3 days. QVD (and Act-D+QVD) was replaced each day. At the end of the experiment, cells were washed twice with PBS and fixed with 4% formaldahyde in PBS for 5 minutes at room temperature. The cells were then washed twice with PBS and then incubated in blocking buffer (3% BSA and 0.1% Triton-X in PBS) for 30 min at room temperature. Cells were incubated for 1 hour at room temperature with anti-cytochrome c (Pharmingen, San Jose, Calif.) diluted 1:800 and 15 μg/ml Hoechst 33342 in blocking buffer. Cells were washed 5 times with PBS, and incubated with anti-mouse secondary antibody for 1 hour at room temperature. The cells were washed 5 times with PBS and then mounted in Prolong (Molecular Probes, Eugene, Oreg.).
Cells were scored as apoptotic if cytochrome c appeared diffuse and met the following criteria: 1) presence of diffuse cytochrome c in both the cytoplasm and nucleus; 2) lack of reticulated or punctate staining in the cytoplasm. Typically images were acquired using a 20× objective, and 500-800 cells were scored. For the exact number of cells counted in FIGS. 3A, 4, and 5, see Table 1 below. Nuclei were counted using images of uniformly illuminated Hoechst staining imported into Image J (URL: <http://rsb.info.nih.gov/ij/>).

HeLa cells = experiment: Cytochrome c immunocytochemistry of HeLa cells treated with ActD and ZVAD-fmk; type: cell-based; conditions: 24 h after treatment
Method: FIGS. 6A and 61B are photographs of the cells after the apoptosis assay. FIG. 6A. Immunocytochemistry. HeLa cells were treated with vehicle (DMSO Control), actinomycin D (ActD) to induce apoptosis, or ActD plus the caspase inhibitor ZVAD-fmk. 24 h later, cells were immunostained for cytochrome c (green) and counterstained with DAPI (blue) to identify nuclei. In control cells, cytochrome c is evident as punctate mitochondrial staining. […] FIG. 6B. Quantification. The % cells with diffuse cytochrome c staining (x axis) were scored 24 h after treatment with vehicle (Contr), ActD or ActD plus ZVAD (ZV). Cytochrome c staining in the presence of ZVAD allows apoptotic cells to accumulate over 24 h.

MEFs [3] = experiment: Sub-G1 peak determination (flow cytometry); type: cell-based, mouse
Method: Cell Death Assays: Sub-G1 peak determination. 1×10^5 cells were treated with Act-D (40 nM in DMSO), DMSO (0.2%), QVD (40 μM), or QVD plus Act-D for 1, 2, or 3 days. QVD (and Act-D+QVD) was replaced each day. At the end of the experiment, media were collected and washed once with PBS. The PBS was also collected and then the cells were trypisized. Trypsinization was stopped by addition of the previously collected and pooled media and PBS. Cells were then collected by centrifugation at 200 g for 10 minutes, resuspended in 70% ethanol and stored at −20° C. overnight. The fixed cells were resuspended in 300 μl of PBS containing 10 μg/ml PI and 0.5 μg/ml RNase A and incubated at room temperature for 1 hour. Cells were quantified by flow cytometery using a FACscan (Becton Dickinson) in FL-3 and analyzed using Cellquest software (BD) (Cotter and Martin, 1996).

MEFs [4] = experiment: PI exclusion assay (flow cytometry); type: cell-based, mouse
Method: PI exclusion assay. 1×10^5 cells were treated with Act-D (40 nM in DMSO), DMSO (0.2%), QVD (40 μM), or QVD plus Act-D for 1, 2, or 3 days. QVD (and Act-D+QVD) was replaced each day. At the end of the experiment, PI was added to a final concentration of 10 μg/ml. Following 10 min in the incubator, media were collected and the cells were washed with PBS. The PBS was also collected and combined with the media. The remaining cells were trypsinized and then combined with the mix of PBS and media. The cells were centrifuged at 200 g for 10 minutes and resuspended in 300 μl of PBS. The cells were then quantified and analyzed as above (Cotter and Martin, 1996).

MEFs [5] = experiment: Mitochondrial membrane potential (TMRE, flow cytometry); type: cell-based, mouse
Method: Mitochondrial Membrane Potential. 1×10^5 cells were treated with Act-D and QVD for 1, 2, or 3 days. QVD (and Act-D+QVD) was replaced each day. At the end of the experiment, media were collected and the cells were washed with PBS. The PBS was collected and combined with the media. Cells were trypsinized and resuspended in medium and PBS, as described above. The cells were spun for 5 min at 200 g and resuspended in fresh media containing TMRE (50 nM) and allowed to incubate at 37° C. for 30 minutes. Fluorescence was quantified in FL-2 using a FACscan and analyzed with Cellquest software (Waterhouse et al., 2001).

[6] = cited from earlier work
HMEC = experiment: Growth curves in media with QVD; type: cell-based, human; conditions: 0.1% DMSO + 40 μM QVD
Method: (§2) HCA-2 fibroblasts and HMEC were grown in normal growth media (DMEM, MEGM) or normal growth media supplemented with 0.1% DMSO (DMSO) or 0.1% DMSO+40 μM QVD (QVD). HCA-2 growth curves were averaged triplicates (HCA-2) or duplicates (HMEC) and error bars (HCA-2) are SD.

HCA-2 fibroblasts = experiment: Growth curves in media with QVD; type: cell-based; conditions: 0.1% DMSO + 40 μM QVD
Method: as §2

[7] = MEFs treated with Act-D for one day

**Q.** Which “attachment of Act-D treated cells with caspase inhibitor” value (WI-38 fibroblasts) does the source give for COC(=O)C[C@H](NC(=O)[C@H](C)NC(=O)[C@@H](NC(=O)OCc1ccccc1)C(C)C)C(=O)CF [zVAD, benzyloxycarbonyl-Val-Ala-Asp-fluoromethylketone] (Cbz-Val-Ala-Asp(OMe)-CH2F) here?
**A.** remained equally well attached

**Q.** And the “detachment of cells in the presence of Act-D and caspase inhibitor” value (HMECs)?
**A.** a larger fraction detached

**Q.** What about the “prevention of Act-D-induced cell detachment” value (MEFs [1]; zVAD 100 μM) of the same compound?
**A.** failed to prevent detachment

**Q.** What does the source list for Cc1c2oc3c(C)ccc(C(=O)N[C@@H]4C(=O)N[C@H](C(C)C)C(=O)N5CCC[C@H]5C(=O)N(C)CC(=O)N(C)[C@@H](C(C)C)C(=O)O[C@@H]4C)c3nc-2c(C(=O)N[C@@H]2C(=O)N[C@H](C(C)C)C(=O)N3CCC[C@H]3C(=O)N(C)CC(=O)N(C)[C@@H](C(C)C)C(=O)O[C@@H]2C)c(N)c1=O [Act-D, actinomycin D] (I: T[dV]P[Sar][NMeV] / II: T[dV]P[Sar][NMeV]; ester I:1-I:C, II:1-II:C; linker I:N-II:N via Actinocin(9to1))?
**A.** cells apoptotic by CICR assay (MEFs [2]; MEFs treated with Act-D for one day, CICR assay (QVD present)): 13%; cells dead or dying by CICR assay (MEFs [2]; MEFs treated with Act-D, after 3 days, CICR assay (QVD present)): 96%; time at which Act-D begins killing cells by CICR assay (MEFs [2]; MEFs, CICR assay): ≤ 24 h; Diffuse cyt c (%) (MEFs [2]; MEFs, Day 1): 0.8%; Diffuse cyt c (%) (MEFs [2]; MEFs, Day 2): 13.4%; cells remaining on dish and cytochrome c staining (HeLa cells): fewer cells are present on the culture dish; apoptosis detected by subG1 peak determination (MEFs [3]; [7]): little or no apoptosis; time after addition at which manifestations of apoptosis were apparent (sub-G1 DNA peak) (MEFs [3]; MEFs, Act-D): 1 to 2 days; apoptotic morphology and detachment (WI-38 fibroblasts; WI-38, Act-D 40 nM, 3 days): adopt characteristic apoptotic morphology and detach from the culture dish; apoptotic morphology and detachment (HMECs; Act-D 40 nM, 3 days): adopt characteristic apoptotic morphology and detach from the culture dish; cells died by PI exclusion assay (MEFs [4]; MEFs treated with Act-D, after 3 days): 74%; time after addition at which manifestations of apoptosis were apparent (propidium iodide exclusion) (MEFs [4]; MEFs, Act-D): 1 to 2 days; apoptosis detected by loss of ΔΨm (MEFs [5]; [7]): little or no apoptosis; time after addition at which manifestations of apoptosis were apparent (reduction in ΔΨm) (MEFs [5]; MEFs, Act-D): 1 to 2 days; apoptotic morphology and detachment (MEFs [1]): adopt characteristic apoptotic morphology and detach from the culture dish

**Q.** With CC(C)[C@H](NC(=O)c1ccc2ccccc2n1)C(=O)N[C@@H](CC(=O)O)C(=O)COc1c(F)cccc1F [QVD, Quinoline-Val-Asp-Ch2-O-Ph] as the compound, how does the “Diffuse cyt c (%)” value (MEFs [2]; MEFs, Day 1) read?
**A.** 2.0%

**Q.** And the “Diffuse cyt c (%)” value (MEFs [2]; MEFs, Day 2)?
**A.** 2.3%

**Q.** And the “Diffuse cyt c (%)” value (MEFs [2]; MEFs, Day 3)?
**A.** 3.2%

**Q.** What about the “dose with no toxicity / administered safely” value ([6]; animal, data sheet of distributor MP Biomedicals) of the same compound?
**A.** 1 g/kg of body weight

**Q.** What about the “dose reported as safely used” value ([6]; in vivo, Yang et al. 2004) of the same compound?
**A.** 20 mg/kg of body weight

**Q.** And the “effect on cell growth” value (HMEC)?
**A.** does not inhibit growth

**Q.** And the “effect on Act-D-induced sub-G1 DNA peak” value (MEFs [3]; MEFs, Act-D, 40 μM QVD)?
**A.** substantially or completely reduced

**Q.** What about the “attachment of Act-D treated cells with caspase inhibitor” value (WI-38 fibroblasts) of the same compound?
**A.** remained equally well attached

**Q.** And the “detachment of cells in the presence of Act-D and caspase inhibitor” value (HMECs)?
**A.** a small fraction detached

**Q.** What about the “effect on Act-D-induced loss of propidium iodide exclusion” value (MEFs [4]; MEFs, Act-D, 40 μM QVD) of the same compound?
**A.** substantially or completely reduced

**Q.** And the “effect on cell growth” value (HCA-2 fibroblasts)?
**A.** does not inhibit growth

**Q.** What about the “effect on Act-D-induced reduction in ΔΨm” value (MEFs [5]; MEFs, Act-D, 40 μM QVD) of the same compound?
**A.** substantially or completely reduced

**Q.** And the “prevention of Act-D-induced cell detachment” value (MEFs [1]; QVD 40 μM)?
**A.** preserves adhesion; also recorded: prevented most of the cell detachment
